Tested on: human EPO expression
Experiment: In vivo assay: human EPO expression in plasma after IV injection of LNP containing human EPO mRNA (human EPO ELISA)
Design: species or system female Balb/C mice
Conditions: 0.5 mg/kg LNP with human EPO mRNA, 4 h post dosing, Balb/C mice plasma (n = 4-5), cationic lipid at 55 mol %, 1.6 mol % PEG2000-C-DMA, 33% cholesterol, 11% DSPC
Experimental: Lipid stocks were prepared (about 7 mg/mL total lipid content) in 100% ethanol, using the lipid identities and molar ratios described. The mRNA was diluted in acetate pH 5 and nuclease-free water to reach a concentration of 0.366 mg/mL mRNA in 100 mM acetate pH 5. Equal volumes of each solution were blended at 400 mL/min in a T-connector, and diluted with about 4 volumes of PBS, pH 7.4, using the direct dilution method described in U.S. Pat. No. 9,404,127. Formulations were then placed in Slide-A-Lyzer dialysis units (MWCO 10,000) and were dialyzed overnight 10 mM Tris, 500 mM NaCl pH 8 (Tris/NaCl buffer). Following dialysis the formulations were concentrated to about 0.6 mg/mL using VivaSpin concentrator units (MWCO 100,000) and then filtered through a 0.2 um syringe filter.
The various lipids of the present invention were formulated in LNP compositions with the following molar ratios: DSPC (11%):Chol (33%):PEG2000-C-DMA (1.6%):Lipid X (55%). A composition was generated comprising the following components: • (a) nucleic acid; • (b) a mixture of cholesterol and DSPC; • (c) a conjugated lipid of formula: […]
Generally, the LNP were injected intravenously at 0.5 mg/kg to female Balb/C mice, 5-8 weeks old and blood was collected at 4-6 hours post dosing; blood is collected into K2EDTA and processed to plasma, then stored frozen at −80° C. until analysis. Activity was assayed by testing the plasma for human EPO expression using an human EPO ELISA kit either from StemCell (catalogue #01630) or R&D Systems (catalogue DEP00) following the manufacturer's instructions.

SMILES | EPO
CCCCC/C=C\CCCC(CCC/C=C\CCCCC)O[Si](CCCCN1CCC(CO)CC1)(OC(CCC/C=C\CCCCC)CCC/C=C\CCCCC)OC(CCC/C=C\CCCCC)CCC/C=C\CCCCC [Example 15] | 18385 mU/mL
CCCCC/C=C\CCCO[Si](CCCCCN(C)C)(OCCC/C=C\CCCCC)OCCC/C=C\CCCCC [Example 20] | 2242992 mU/mL
CCCCC/C=C\CCCO[Si](CCCCN(C)C)(OCCC/C=C\CCCCC)OCCC/C=C\CCCCC [Example 4] | 1300807 mU/mL
CCCCCCCCCO[Si](CCCN(C)C)(OCCCCCCCCC)OCCCCCCCCC [Example 6] | 25596 mU/mL
CCCCC/C=C\CCCO[Si](CCCCN1CCC(CO)CC1)(OCCC/C=C\CCCCC)OCCC/C=C\CCCCC [Example 9] | 37927 mU/mL
CCCCCCCCCCO[Si](CCCCN(C)C)(OCCCCCCCCCC)OCCCCCCCCCC [Example 11] | 256974 mU/mL
C=C(C)C1CC=C(CO[Si](CCCCN(C)C)(OCC2=CCC(C(=C)C)CC2)OCC2=CCC(C(=C)C)CC2)CC1 (stereo not shown) [Example 23] | 17488 mU/mL
CCCCC/C=C\CCCO[Si](CCCN(C)C)(OCCC/C=C\CCCCC)OCCC/C=C\CCCCC [Example 2] | 144176 mU/mL
CCCCC/C=C\CCCO[Si](CCCCCCN(C)C)(OCCC/C=C\CCCCC)OCCC/C=C\CCCCC [Example 21] | 1470419 mU/mL
CCCCC/C=C\CCCO[Si](CCCCN(C)CCO)(OCCC/C=C\CCCCC)OCCC/C=C\CCCCC [Example 8] | 30446 mU/mL
CCCCC/C=C\CCCC(CCC/C=C\CCCCC)CO[Si](CCCN(C)C)(OCC(CCC/C=C\CCCCC)CCC/C=C\CCCCC)OCC(CCC/C=C\CCCCC)CCC/C=C\CCCCC [Example 22] | 15075 mU/mL
CCCCCCC(CCCC)CO[Si](CCCCN(C)C)(OCC(CCCC)CCCCCC)OCC(CCCC)CCCCCC (stereo not shown) [Example 19] | 47218 mU/mL
CN(C)CCCC[Si](OCC12CC3CC(CC(C3)C1)C2)(OCC12CC3CC(CC(C3)C1)C2)OCC12CC3CC(CC(C3)C1)C2 [Example 17] | 226593 mU/mL
